Entries after “also recorded” stand apart in the source; their conditions may differ. Read-outs that look alike come from different tables or passages of the source.

Experiment [1] has as its system HUVECs. Put plainly: ALAMARBLUE proliferation assay in HUVECs. As to conditions: for GI50: 50% growth inhibitory concentration, alamarBlue. The class given is cell-based, human. Here is the method: Particularly, in a 96-well clear bottom black plate, cells (2,500 cells per well) were seeded in a total volume of 100 μL EGM-2. After 24 hours of incubation of the plate at 37° C. and 5% CO2, a DMSO solution of synthetic cremastranone (1) or SH-11052 (2) was added in the concentration range of 0.5 nM to 500 μM (final DMSO concentration=1%). The plate was then further incubated for 48 hours before adding 11.1 μL of ALAMARBLUE® reagent to each well. Four hours after the addition of ALAMARBLUE®, fluorescence readings with excitation and emission wavelengths of 560 nm and 590 nm, respectively, were taken and the data were analyzed in GraphPad Prism software (v. 6.0). Dose response curves were generated and the GI50 values were calculated using the following equation: Y=100/(1+10^(X−Log GI50)).
(§1) For proliferation assays, cells (2500 per well) were seeded in a 96-well clear bottom black polystyrene plate in a total volume of 100 μL. HUVECs and HRECs were grown in EGM-2 and CSC+ media respectively, while 92-1 and Y79 cells were maintained in RPMI+10% FBS, penicillin/streptomycin and RB medium (IMDM+10% FBS+penicillin/streptomycin+10 μg/mL insulin+55 μM β-mercaptoethanol) respectively. After 24 hours of incubation of the plate at 37° C., the compounds were dissolved in DMSO and added in the concentration range of 500 μM to 0.5 nM. The plate was then incubated at 37° C. and 5% CO2 conditions for 48 hours before adding 11.1 μL of alamar blue reagent for each well. Four hours after the addition of ALAMARBLUE® reagent, fluorescence readings with excitation and emission wavelengths of 560 nm and 590 nm respectively were taken and the data was analyzed in GraphPad Prism software. The dose response curves were generated and the GI50 values were calculated using the equation: Y=100/(1+10^(X−Log GI50)) (Table 1).

The test system of experiment [2] is HUVECs. Put plainly: EdU incorporation (DNA synthesis) in HUVECs. The class given is cell-based, human. The settings on record: 24 hours treatment, 10 μM EdU pulse; listed as SH-11052 (2). How it is done:
In order to confirm the inhibition of cell proliferation, incorporation of 5-ethynyl-2′-deoxyuridine (EdU) into endothelial cells in the presence of SH-11052 (2) was further monitored. Particularly, cells (25,000 per coverslip) were seeded onto coverslips coated with Attachment Factor (Cell Systems, Kirkland, Wash., USA) placed in a 6-well plate and incubated with the indicated concentrations of SH-11052 (2) in EGM-2 for 24 hours at 37° C. and 5% CO2. The cells were then serum starved for 8 hours and the medium was replaced with EGM-2 containing 10 μM EdU. The plate was further incubated for another 8 hours before processing the cells for detection of labeled DNA (according to the manufacturer's instructions for the Click-iT EdU assay kit). Images were taken using an EVOS fluorescence microscope (AMG, Mill Creek, Wash., USA) and the number of DAPI stained and EdU stained cells were counted in six randomly chosen fields using ImageJ software.

Experiment [3] has as its system CCL2 (MCP-1). Nature of the experiment: qRT-PCR of NF-κB target gene CCL2 in TNF-α challenged cells. Format: cell-based, human. As to conditions: 10 ng/ml TNF-α for 24 hours; listed as SH-11052 (2). Here is the method: Similarly, the mRNA expression of the pro-inflammatory molecules IL8, PTGS2 (COX2) and CCL2 (MCP-1), inducible by NF-κB, were analyzed in the presence of SH-11052 (2). Cells (10^5 per well) were seeded in a 6-well plate and incubated for 24 hours at 37° C. and 5% CO2. The cells were then starved in 0.1% serum-EBM-2 for 12 hours followed by incubation for an hour in the presence of different concentrations of SH-11052 (2). The cells were then challenged for 24 hours with 10 ng/ml TNF-α. Following incubation, cells were lysed and RNA was isolated using Trizol reagent (Life Technologies). cDNA was prepared from 80 ng total RNA using random primers and M-MuLV Reverse Transcriptase (New England Biolabs, Ipswich, Mass., USA). RT-PCR reactions were set up using the TaqMan Fast Gene Expression Assay Kit according to the manufacturer's instructions. FAM-labeled TaqMan probes for PTGS2 (Hs00153133_m1), CCL2 (Hs00234140_m1), IL8 (Hs00174103_m1), and control, TBP (Hs99999910_m1), genes were used to monitor the expression levels of these genes. The qRT-PCR plate was read in a ViiATM 7 qPCR system (Life Technologies) and the data were analyzed using the ΔΔCt method. The expression levels of genes were normalized to TBP gene expression and calibrated to the DMSO-treated, unstimulated sample.

The test system of experiment [4] is 92-1 uveal melanoma cells. Put plainly: ALAMARBLUE proliferation assay in 92-1 uveal melanoma cells. Format: cell-based. As to conditions: for GI50: 50% growth inhibitory concentration, 48 hours, alamarBlue. How it is done:
as §1
On the technique in general: The colour change of resazurin is a common sign of viable cells or microbes.

The subject of experiment [5] is HRECs. Put plainly: Matrigel tube formation by HRECs. The settings on record: for tube formation ability of HRECs: compared to DMSO control, concentration not given. The class given is cell-based, human. How it is done:
Matrigel assays were performed as described in Ponce (2001) In vitro matrigel angiogenesis assays, Methods Mol Med 46: 205-209, with slight modifications for the use of HRECs. Briefly, HRECs were starved overnight at 0.5% FBS in EBM-2 and plated on a 96-well plate at a density of 7,500 cells/well over 50 μL of Matrigel high concentration basement membrane. SH-11052 (2) was added at the indicated concentrations in EBM-2+1% FBS. Cells were observed every 2 hours by bright field microscopy at 40× magnification for tube formation. Closed units (polygons) were manually counted at 8 hours post plating and numbers normalized to the DMSO control. Assays were performed in triplicate.
For determining the effect of analog compound SH-11037 (6c) on tube formation, HRECs were plated in 100 μL of EGM-2 containing SH-11037 (6c) (0 nM, 50 nM and 200 nM) dissolved in DMSO in 96-well MatriGel-coated plates for one hour. Wells were photographed after 8 hours and number of polygons (enclosed shapes bordered by tubes) manually counted and expressed as a percentage of the DMSO-only control.

Consider `COc1ccc(CC2COc3cc(OC)c(O)c(O)c3C2=O)cc1O` (single isomer, unassigned) [Compound 2], for which the GI50 was 18 µM in experiment [1] (Homo sapiens, HUVEC, 48 h) and 6 µM in experiment [4]. Moreover, in experiment [1] (result in words, FIGS. 6A, 6C), the “in vitro anti-proliferative activity in HUVECs” value is on record as “demonstrated in vitro anti-proliferative activity”. Further, in experiment [2], the “DNA synthesis (EdU incorporation) in HUVECs” value is recorded as “blocked EdU incorporation; also recorded: significantly inhibited in a dose dependent manner”. Moreover, the “mRNA expression of CCL2 (MCP-1)” value in experiment [3] was “decreased the expression”. The “tube formation ability of HRECs at 140 μM” value in experiment [5] (140 μM, 8 hours) is given as “completely abolished”. Besides, in experiment [5] (listed as SH-11052 (2)), the “tube formation ability of HRECs” value is on record as “inhibited tube formation; also recorded: significant reduction in their tube formation ability”. Moreover, in experiment [5] (compound at its GI50 value, 8 hours), the “tube formation of HRECs at the GI50 value” was “significant reduction in tube formation”.

On to `COc1ccc(CC2COc3cc(OC)c(OC)c(OC)c3C2=O)cc1OC(=O)[C@H](Cc1ccccc1)NC(=O)OC(C)(C)C` (stereo partly drawn) [Compound 6c, (2S)-2-methoxy-5-((5,6,7-trimethoxy-4-oxochroman-3-yl)methyl)phenyl 2-((tert-butoxycarbonyl)amino)-3-phenylpropanoate], for which the GI50 came to 0.746 µM in experiment [1] (48 hours, listed as 6c (SH-11037), read-out: GI50 HUVEC); 1 µM in experiment [1] (Homo sapiens, HUVEC, 48 h); 400 µM in experiment [4]. The “toxicity to a uveal melanoma cell line” value in experiment [4] (result in words) is given as “non-toxic”. Also, the “block of HREC tube formation” value in experiment [5] (500 nM, polygons vs DMSO-only control) is 88%. Besides, in experiment [5], the “tube formation ability of HRECs” value is “inhibited”.

The term GI50 denotes the concentration that inhibits growth by half.

The values above are taken from patent US10738024B2, “Compounds for treatment of angiogenesis-mediated diseases” (Indiana University Research and Technology Corporation, priority 2013, dated 2020).
